Experimental findings from PubChem BioAssay (NCI) are described below.

Molecules are shown by their SMILES. Where “and” joins values, the source holds several entries; their conditions need not be identical. Equal entries are not always repeated.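 Dose response: 5 concentrations. Exposure: 48 h. Format: 96-well plates. Endpoint: linear interpolation; highest concentration if not reached. GI50 marks 50% less growth. At the TGI there is no net growth.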 Bounds are passed on as bounds.

Test systems include CAKI-1 renal; HS 578T breast; UACC-62 melanoma; A549 NSCLC; SN12C renal; SF-268 CNS; HT29 colon; BT-549 breast; UO-31 renal; PC-3 prostate.
What all share (assay): inhibition of tumour cell growth, NCI panel, 48 h

On to `NS(=O)(=O)c1c(O)c2ccccc2oc1=O`, for which the TGI in the assay on CAKI-1 renal, with HS 578T breast, in the assay on UACC-62 melanoma, in the assay with A549 NSCLC, in the assay with SN12C renal and with SF-268 CNS was greater than 100 µM each time. Further, the TGI in the assay with HT29 colon, in the assay on BT-549 breast, in the assay on UO-31 renal and in the assay with PC-3 prostate was greater than 100 µM in each case.
For `CC1=C(C(=O)NNC(=O)C[N+](C)(C)C)CC(C(=O)NNC(=O)C[N+](C)(C)C)=C(C)N1`, the TGI with CAKI-1 renal, in the assay on HS 578T breast, in the assay on UACC-62 melanoma, in the assay on A549 NSCLC, with SN12C renal and with SF-268 CNS was greater than 100 µM in each case. Also, the TGI in the assay with HT29 colon, in the assay on BT-549 breast, in the assay on UO-31 renal and with PC-3 prostate was greater than 100 µM throughout.
With `CCOC(=O)c1c(C)n(-c2ccc(C)cc2)c(=O)c2ccccc2c(=O)c2c(=O)ccc(=O)c1=2`, the TGI with CAKI-1 renal stood at 28.1 µM; in the assay with HS 578T breast, 44.7 µM; with UACC-62 melanoma, 52 µM; in the assay with A549 NSCLC, 58.1 µM; in the assay with SN12C renal, 66.7 µM; in the assay on SF-268 CNS it was 54.2 µM. Besides, the TGI with HT29 colon was 38.7 µM; in the assay on BT-549 breast, 57.9 µM; with UO-31 renal, greater than 100 µM; in the assay with PC-3 prostate, 56.6 µM.
For the compound `C/C=C(/CCC1NCCc2c1[nH]c1ccccc21)[Si](C)(C)C` (centres undefined), the TGI was > 100 µM and 18.3 µM with CAKI-1 renal; > 100 µM and 26.5 µM with UACC-62 melanoma; > 100 µM and 29.7 µM in the assay with A549 NSCLC; > 100 µM and 16.9 µM in the assay with SN12C renal; > 100 µM and 29 µM in the assay on SF-268 CNS; > 100 µM and 17.3 µM in the assay on UO-31 renal.
As to `NC(Cc1cc(I)c(Oc2ccc(O)c(I)c2)c(I)c1)C(=O)O` (centres undefined), the TGI in the assay with CAKI-1 renal, in the assay with HS 578T breast, in the assay on UACC-62 melanoma, in the assay with A549 NSCLC, in the assay on SN12C renal and in the assay on SF-268 CNS was greater than 100 µM in each case. Moreover, the TGI in the assay with HT29 colon, in the assay on BT-549 breast, in the assay with UO-31 renal and in the assay with PC-3 prostate was greater than 100 µM throughout.
On to `Fc1ccc2c(c1)SC1=Nc3sc4cc(F)ccc4[n+]3CN12`, for which the TGI with CAKI-1 renal is 39.3 µM; in the assay with HS 578T breast it was 38.4 µM; in the assay on UACC-62 melanoma, 33.1 µM; in the assay on A549 NSCLC it was 58.3 µM; with SN12C renal, 51.2 µM; with SF-268 CNS it was greater than 100 µM. For the same compound, the TGI in the assay on HT29 colon is greater than 100 µM; in the assay with BT-549 breast it was 43.6 µM; in the assay with UO-31 renal, 74.3 µM; in the assay with PC-3 prostate it was greater than 100 µM.
As to `NCCCCNOCCCN`, the TGI in the assay with CAKI-1 renal, in the assay with HS 578T breast, in the assay with UACC-62 melanoma, in the assay on A549 NSCLC, in the assay with SN12C renal and in the assay with SF-268 CNS was greater than 100 µM throughout. For the same compound, the TGI in the assay on HT29 colon, in the assay on BT-549 breast, with UO-31 renal and with PC-3 prostate was greater than 100 µM throughout.
Take `COC(=O)C1=C(O)C(C(=O)OC)[C@@]2(O)[C@@H](C(=O)OC)[C@H](C)C[C@@H]1[C@@H]2C(=O)OC` (some centres undefined): the TGI in the assay on HS 578T breast was 54.1 µM; in the assay with UACC-62 melanoma it was greater than 100 µM; in the assay with SN12C renal, greater than 100 µM; in the assay on HT29 colon, 71.3 µM; in the assay with BT-549 breast, greater than 100 µM; in the assay on UO-31 renal it was 67.6 µM.
`O=c1c(-c2ccccc2)c(SCCCN2CCCCC2)n(-c2ccccc2)c(=S)n1-c1ccccc1`: the TGI with CAKI-1 renal is 38.7 µM; in the assay with HS 578T breast, greater than 100 µM; in the assay on UACC-62 melanoma it was 30.1 µM; in the assay with BT-549 breast, 35.5 µM; in the assay on PC-3 prostate, 39.4 µM.
`CC(C)(CCCCC(C)(C)NC1=NCCO1)NC1=NCCO1`: the TGI in the assay on CAKI-1 renal, with HS 578T breast, with UACC-62 melanoma, in the assay on A549 NSCLC, with SN12C renal and in the assay with SF-268 CNS was greater than 10 µM in each case. The TGI with HT29 colon, in the assay on UO-31 renal and with PC-3 prostate was greater than 10 µM in each case.
Take `C(=C\c1cc[n+](CCc2ccccc2)cc1)/c1ccccc1`: the TGI with CAKI-1 renal is 86.1 µM; with HS 578T breast, 54.6 µM; in the assay on UACC-62 melanoma it was 22.9 µM; in the assay with A549 NSCLC it was 51.8 µM; with SN12C renal, 16.4 µM; with SF-268 CNS it was 74.5 µM. In addition, the TGI was 35.1 µM in the assay with HT29 colon, 57.9 µM in the assay with BT-549 breast, greater than 100 µM with UO-31 renal and greater than 100 µM in the assay on PC-3 prostate.
For the compound `O=c1c2ccccc2nc2n1CCc1c-2[nH]c2ccccc12`, the TGI was determined as 47.9 µM with CAKI-1 renal; 50.5 µM with HS 578T breast; 37.4 µM in the assay on A549 NSCLC; 75.2 µM in the assay on SF-268 CNS; 28.1 µM in the assay on UO-31 renal; 40.9 µM in the assay on PC-3 prostate. In addition, the GI50 in the assay with HS 578T breast is 22.6 µM; in the assay on A549 NSCLC, 14.5 µM.
Consider `O=[N+]([O-])c1ccc(N/N=C\c2cc(Br)ccc2O)nc1`, for which the GI50 was 0.459 µM in the assay on CAKI-1 renal; 2.13 µM in the assay on HS 578T breast; 1.86 µM in the assay on UACC-62 melanoma; 2.84 µM with A549 NSCLC; 0.807 µM with SN12C renal; 0.452 µM with SF-268 CNS. Further, the GI50 was 4.27 µM in the assay with HT29 colon, 4.95 µM with BT-549 breast, 0.376 µM with UO-31 renal and 1.67 µM with PC-3 prostate. Further, the TGI in the assay on CAKI-1 renal came to 2.35 µM; in the assay on HS 578T breast, 8.93 µM; in the assay on UACC-62 melanoma, 6.15 µM; in the assay on A549 NSCLC, 29.8 µM; with SN12C renal, 12.9 µM; with SF-268 CNS, 4.18 µM. Moreover, the TGI is greater than 100 µM in the assay with HT29 colon, greater than 100 µM in the assay with BT-549 breast, 2.01 µM in the assay with UO-31 renal and greater than 100 µM with PC-3 prostate.
As for `COC(=O)C(C)NP(=O)(OCc1cccc(Cn2cnc3c(N)ncnc32)c1)Oc1ccccc1` (centres undefined), the GI50 with CAKI-1 renal was greater than 100 µM; with HS 578T breast, 32.8 µM; with UACC-62 melanoma it was 56.3 µM; in the assay on A549 NSCLC it was greater than 100 µM; in the assay on SN12C renal, greater than 100 µM; with SF-268 CNS, 58.4 µM. The GI50 in the assay on HT29 colon, with BT-549 breast, in the assay on UO-31 renal and in the assay on PC-3 prostate was greater than 100 µM in each case. Also, the TGI with CAKI-1 renal, in the assay with HS 578T breast, in the assay on UACC-62 melanoma, in the assay with A549 NSCLC, with SN12C renal and in the assay on SF-268 CNS was greater than 100 µM in each case. Moreover, the TGI with HT29 colon, in the assay on BT-549 breast, in the assay on UO-31 renal and in the assay on PC-3 prostate was greater than 100 µM in each case.
For `NCCc1ccc(S(=O)(=O)O)cc1[N+](=O)[O-]`, the TGI in the assay on CAKI-1 renal, with HS 578T breast, in the assay on UACC-62 melanoma, with A549 NSCLC, with SN12C renal and in the assay on SF-268 CNS was greater than 100 µM each time. Also, the TGI with HT29 colon, with BT-549 breast, in the assay with UO-31 renal and with PC-3 prostate was greater than 100 µM throughout.
`COc1cc(CCN)c(OC)c(OC)c1`: the TGI in the assay with CAKI-1 renal, in the assay with HS 578T breast, in the assay on UACC-62 melanoma, in the assay with A549 NSCLC, in the assay on SN12C renal and in the assay on SF-268 CNS was greater than 100 µM each time. The TGI with HT29 colon, in the assay with BT-549 breast, with UO-31 renal and in the assay with PC-3 prostate was greater than 100 µM in each case.
Regarding `CC(C)C(=O)Cc1ccc2ccccc2n1`, the TGI in the assay with CAKI-1 renal, in the assay with HS 578T breast, in the assay on UACC-62 melanoma, in the assay on A549 NSCLC, in the assay on SN12C renal and in the assay on SF-268 CNS was greater than 100 µM throughout. Further, the TGI in the assay on HT29 colon, in the assay with BT-549 breast, with UO-31 renal and in the assay on PC-3 prostate was greater than 100 µM in each case.
